The source of these data is ChEMBL document CHEMBL2331399, “Purification and characterization of carbonic anhydrase from sheep kidney and effects of sulfonamides on enzyme activity” (Bioorg Med Chem, 2013).

The nature of this assay: Inhibition of sheep kidney esterase activity of carbonic anhydrase using 4-nitrophenylacetate as substrate after 3 mins by spectrophotometric analysis. More on the design: species or system Ovis aries.
As to `Nc1ccc(S(N)(=O)=O)cc1` [SULFANILAMIDE], the Ki (in general, the dissociation constant of the complex between target and ligand, obtained from inhibition or displacement) was found to be 69.3 µM. That is a double-digit micromolar value.

In turn, `NS(=O)(=O)c1ccccc1` [BENZENESULFONAMIDE] had a Ki of 8.66 µM.

The compound `NS(=O)(=O)c1ccc2ccccc2c1` gave a Ki of 2.59 µM.

Compound `NS(=O)(=O)c1ccccc1Br` yielded an inhibition constant (Ki) of 5.87 µM.

As for `Cc1ccc(S(N)(=O)=O)cc1` [P-TOLUENESULFONAMIDE], affinity was put at a Ki of 1.35 µM.
